pEC50: −log10 of the molar value.
Target: T1, human GR (Homo sapiens, UniProt P04150)
T1 construct: naturally expresses the human GR; endogenous in cells
T1 sequence (P04150 1-777): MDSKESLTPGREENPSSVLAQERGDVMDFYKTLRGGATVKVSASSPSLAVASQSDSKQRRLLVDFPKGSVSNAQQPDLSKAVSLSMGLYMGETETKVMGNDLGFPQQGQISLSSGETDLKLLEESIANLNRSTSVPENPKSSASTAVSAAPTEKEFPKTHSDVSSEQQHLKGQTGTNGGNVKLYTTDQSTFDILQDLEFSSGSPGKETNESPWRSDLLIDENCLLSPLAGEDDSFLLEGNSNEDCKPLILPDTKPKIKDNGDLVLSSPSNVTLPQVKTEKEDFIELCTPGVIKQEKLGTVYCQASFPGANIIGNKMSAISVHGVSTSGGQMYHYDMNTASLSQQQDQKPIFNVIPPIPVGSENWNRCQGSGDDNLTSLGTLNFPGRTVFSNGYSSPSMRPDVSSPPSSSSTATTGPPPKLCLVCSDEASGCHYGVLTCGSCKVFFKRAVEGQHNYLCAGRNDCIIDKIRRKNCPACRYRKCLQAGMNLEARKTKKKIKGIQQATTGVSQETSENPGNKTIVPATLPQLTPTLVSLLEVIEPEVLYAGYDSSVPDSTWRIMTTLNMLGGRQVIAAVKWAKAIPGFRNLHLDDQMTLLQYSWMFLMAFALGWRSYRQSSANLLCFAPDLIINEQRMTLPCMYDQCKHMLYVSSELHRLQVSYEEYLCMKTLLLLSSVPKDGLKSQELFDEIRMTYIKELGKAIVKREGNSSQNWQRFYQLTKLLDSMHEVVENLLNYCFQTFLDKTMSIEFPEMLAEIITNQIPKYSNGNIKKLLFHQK
Test: Trans-Activation Modulation of Glucocorticoid Receptor Assay (GRAMMER), MMTV-LUC reporter in A549 cells
Type: cell-based
Conditions: for Emax: A549, Emax relative to the activity obtained with 300 nM dexamethasone, read-out: Transactivation A549 Cells GRAMMER Emax (%); for pEC50: inflection point (IP), MMTV-LUC reporter, read-out: Transactivation A549 Cells GRAMMER IP; for Transactivation A549 Cells GRAMMER Emax (%): Emax relative to the activity obtained with 300 nM dexamethasone
Text: This assay assesses the ability of test compounds to control transcription from the MMTV-LUC reporter gene in lung adenocarcinoma A549 cells or HeLa cells, a human […] cell line that naturally expresses the human GR. The assay measures induction of a modified MMTV LTR/promoter linked to the LUC reporter gene.
The routine transient assay consists of plating 7,000-25,000 cells/well of a white, clear-bottom 96-well plate. Alternatively, 384-well plates can be used at a cell concentration of 10,000/well. The media that the cells are plated in is “exponential growth medium” which consists of phenol red-free RPMI1640 containing 10% FBS, 4 mM L-glutamine, 20 mM HEPES, 10 ug/mL human insulin, and 20 ug/mL gentamicin. Incubator conditions are 37° C. and 5% CO2. The transfection is done in batch mode. The cells are trypsinized and counted to the right cell number in the proper amount of fresh media. It is then gently mixed with the FuGene6/DNA mix and plated onto the 96 or 384-well plate, all the wells receive 100 uL or 40 uL, respectively, of medium+lipid/DNA complex then incubated 37° C. overnight. The transfection cocktail consists of serum-free OptiMEM, FuGene6 reagent and DNA. The manufacturer's (Roche Biochemical) protocol for cocktail setup is as follows: The lipid to DNA ratio is approximately 2.5:1 and the incubation time is 20 min at room temperature. Sixteen to 24 hours after transfection, the cells are treated with dexamethasone to a final concentration of 10 nM as well as the compound of interest, such that final DMSO (vehicle) concentration is equal to or less than 1%. Each plate also contains samples that are treated with 10 nM dexamethasone alone, which is used as the 100% activity control. The cells are exposed to the compounds for 24 hours. After 24 hours, the cells are lysed by a Promega cell culture lysis buffer for approximately 30 min and then the luciferase activity in the extracts is assayed in the 96-well format luminometer. In 384-well format, Steady-Glo (Promega) or Steady-Lite (PerkinElmer) can be used by adding an equal volume of reagent to the media present in each well. Activity induced by 10 nM dexamethasone alone is set at 100% activity. Antagonist activity is calculated by determining the decrease in dexamethasone-induced activity in response to compound treatment relative to samples that were treated with dexamethasone alone. Results are expressed as % inhibition of 10 nM dexamethasone activity or as fold of 10 nM dexamethasone activity. This transactivation assay can be performed in an agonist and antagonist mode to identify these different activities.
Activity of test compounds is calculated as the Emax relative to the activity obtained with 300 nM dexamethasone. Activity of test compounds is calculated as the Emax relative to the activity obtained with 300 nM DEX. The exemplified tissue selective glucocorticoid receptor modulators of the present invention display agonist activity in this assay of greater than 5% and less than 100%, and maximal transactivation activity less then maximal transrepression activity. […]

| SMILES | Emax | pEC50 | Transactivation A549 Cells GRAMMER Emax (%) |
| --- | --- | --- | --- |
| C[C@]12Cc3cnn(-c4ccc(F)cc4)c3C=C1CC[C@@]2(CO)CC(O)c1ccccc1Cl (single isomer, unassigned) [Example 3a] | 127% | 7.41 | – |
| C[C@]12Cc3cnn(-c4ccc(F)cc4)c3C=C1CC[C@@]2(CO)CC(O)c1cc(F)cc(Cl)c1 (single isomer, unassigned) [Example 6a] | – | 7.52 | 62.4% |
| COc1cccnc1C(O)C[C@]1(CO)CCC2=Cc3c(cnn3-c3cccc(F)c3)C[C@@]21C (single isomer, unassigned) [Example 26b] | – | 6.18 | 4.3% |
| COc1cccnc1C(O)C[C@]1(CO)CCC2=Cc3c(cnn3-c3ccc(F)cc3)C[C@@]21C (single isomer, unassigned) [Example 21a] | – | 6.82 | 32.4% |
| C[C@]12Cc3cnn(-c4ccc(F)cc4)c3C=C1CC[C@@]2(CO)CC1OC(=O)c2ccccc21 (single isomer, unassigned) [Example 12b] | – | 7.48 | 54.2% |
| C[C@]12Cc3cnn(-c4cccc(F)c4)c3C=C1CC[C@@]2(CO)CC(O)c1cccnc1 (single isomer, unassigned) [Example 27b] | – | 6.20 | 15.4% |
| Cc1ccc(C(O)C[C@]2(CO)CCC3=Cc4c(cnn4-c4ccc(F)cc4)C[C@@]32C)cc1 (single isomer, unassigned) [Example 2a] | – | 6.31 | 46.6% |
| C[C@]12Cc3cnn(-c4ccc(F)cc4)c3C=C1CC[C@@]2(CO)CC(O)c1ccccc1F (stereo partly drawn) [Example 4, 1-(2-fluorophenyl)-2-[(4αS,5R)-1-(4-fluorophenyl)-5-(hydroxymethyl)-4α-methyl-1,4,4α,5,6,7-hexahydrocyclopenta[f]indazol-5-yl]ethanol] | 80.3% | 7.40 | – |
| CC(O)(C[C@]1(CO)CCC2=Cc3c(cnn3-c3ccc(F)cc3)C[C@@]21C)c1cccnc1 (single isomer, unassigned) [Example 25b] | – | 6.40 | 7.6% |
| C[C@]12Cc3cnn(-c4ccc(F)cc4)c3C=C1CC[C@@]2(CO)CC(O)C1CC1 (single isomer, unassigned) [Example 20a, 1-cyclopropyl-2-[(4αS)-1-(4-fluorophenyl)-5-(hydroxymethyl)-4α-methyl-1,4,4α,5,6,7-hexahydrocyclopenta[f]indazol-5-yl]ethanol] | – | 6.73 | 23.1% |
| C[C@]12Cc3cnn(-c4ccc(F)cc4)c3C=C1CC[C@@]2(CO)CC(O)c1ccncc1 (single isomer, unassigned) [Example 17a] | 26.4% | 6.99 | – |

The next molecules have a higher pEC50 than those just listed; values first:

| Emax | pEC50 | Transactivation A549 Cells GRAMMER Emax (%) | SMILES |
| --- | --- | --- | --- |
| 63.2% | 7.54 | – | C[C@]12Cc3cnn(-c4ccc(F)cc4)c3C=C1CC[C@@]2(CO)CC(O)c1ccc(F)cn1 (single isomer, unassigned) [Example 22a] |
| 56.6% | 7.63 | – | C[C@]12Cc3cnn(-c4ccc(F)cc4)c3C=C1CC[C@@]2(CO)CC(O)c1ncccc1F (single isomer, unassigned) [Example 10a] |
| – | 7.63 | 58.4% | Cc1cccc(C(O)C[C@]2(CO)CCC3=Cc4c(cnn4-c4ccc(F)cc4)C[C@@]32C)c1 (single isomer, unassigned) [Example 5b] |
| 38.3% | 7.74 | – | Cc1ccc(C(O)C[C@]2(CO)CCC3=Cc4c(cnn4-c4ccc(F)cc4)C[C@@]32C)nc1 (stereo partly drawn) [Example 16, 2-[(4αS,5R)-1-(4-fluorophenyl)-5-(hydroxymethyl)-4α-methyl-1,4,4α,5,6,7-hexahydrocyclopenta[f]indazol-5-yl]-1-(5-methylpyridin-2-yl)ethanol] |
| – | 8.14 | 57.5% | C[C@]12Cc3cnn(-c4ccc(F)cc4)c3C=C1CC[C@@]2(CO)CC(O)c1ccccc1 (single isomer, unassigned) [Example 13b] |

From patent US20120095055A1, “HEXAHYDROCYCLOPENTYL[f]INDAZOLE 5-HYDROXYMETHYL ETHANOLS AND DERIVATIVES THEREOF AS SELECTIVE GLUCOCORTICOID RECEPTOR MODULATORS” (Merck Sharp & Dohme, Corp., priority 2009, published 2012)
